# Experimental data reported in ChEMBL document CHEMBL5465560, “Selectivity Literature for EUbOPEN Chemogenomic Library” (2024).
# Key:
# D(1A) dopamine receptor = D(1A) dopamine receptor (Homo sapiens, UniProt P21728); assay: Selectivity interaction (GPCR panel (PDSP screen)) EUB0000311b DRD1; conditions: at 10 µM
# [1] = biological target: T1, TGF-beta receptor type-1 (Homo sapiens) (UniProt P36897); assay: Selectivity interaction (KinomeScan (DiscoverX)) EUB0000666a TGFBR1; conditions: at 10 µM
# T1 sequence (whole entry): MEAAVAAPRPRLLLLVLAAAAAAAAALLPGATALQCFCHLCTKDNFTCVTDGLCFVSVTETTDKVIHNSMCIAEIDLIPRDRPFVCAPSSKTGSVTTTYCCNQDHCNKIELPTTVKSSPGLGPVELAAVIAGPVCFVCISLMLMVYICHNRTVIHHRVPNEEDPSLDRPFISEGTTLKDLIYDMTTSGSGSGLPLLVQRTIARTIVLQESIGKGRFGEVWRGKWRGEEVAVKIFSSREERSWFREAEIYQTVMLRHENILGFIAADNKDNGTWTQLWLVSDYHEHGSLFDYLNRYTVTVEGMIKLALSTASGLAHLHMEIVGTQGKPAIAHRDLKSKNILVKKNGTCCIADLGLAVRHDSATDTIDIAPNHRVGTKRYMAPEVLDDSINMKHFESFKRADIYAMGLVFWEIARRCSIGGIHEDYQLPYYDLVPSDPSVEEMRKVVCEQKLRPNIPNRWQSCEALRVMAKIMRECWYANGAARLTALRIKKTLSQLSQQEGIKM
# [2] = biological target: T2, cGMP-dependent protein kinase 2 (Homo sapiens) (UniProt Q13237); assay: Selectivity interaction (KinomeScan (DiscoverX)) EUB0001619a PRKG2; conditions: at 1 µM
# T2 sequence (whole entry): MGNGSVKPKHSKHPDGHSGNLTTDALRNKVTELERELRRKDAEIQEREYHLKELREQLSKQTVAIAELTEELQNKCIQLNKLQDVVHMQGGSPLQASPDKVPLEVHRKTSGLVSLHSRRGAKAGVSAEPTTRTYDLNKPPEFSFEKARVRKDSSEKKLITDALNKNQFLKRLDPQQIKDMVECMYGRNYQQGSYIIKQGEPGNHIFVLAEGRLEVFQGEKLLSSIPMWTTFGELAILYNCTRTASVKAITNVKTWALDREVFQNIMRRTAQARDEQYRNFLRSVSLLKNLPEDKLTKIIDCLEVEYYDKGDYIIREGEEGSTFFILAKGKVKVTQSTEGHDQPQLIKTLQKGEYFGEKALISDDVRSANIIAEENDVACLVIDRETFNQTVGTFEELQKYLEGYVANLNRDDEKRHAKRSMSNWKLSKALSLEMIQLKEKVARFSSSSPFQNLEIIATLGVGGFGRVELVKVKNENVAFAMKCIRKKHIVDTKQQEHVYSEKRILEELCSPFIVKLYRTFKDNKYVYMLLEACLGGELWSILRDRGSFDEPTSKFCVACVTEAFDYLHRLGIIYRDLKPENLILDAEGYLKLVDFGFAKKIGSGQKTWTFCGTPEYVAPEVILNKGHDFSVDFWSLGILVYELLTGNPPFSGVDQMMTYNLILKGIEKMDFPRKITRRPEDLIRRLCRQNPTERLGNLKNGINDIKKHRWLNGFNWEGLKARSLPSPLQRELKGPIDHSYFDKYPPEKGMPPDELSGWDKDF
# [3] = biological target: T3, STE20-like serine/threonine-protein kinase (Homo sapiens, UniProt Q9H2G2); assay: Selectivity interaction (ActivX KiNativ screen (ex vivo kinase selectivity in human PBMCs)) EUB0001619a SLK; format: cell-based; conditions: PBMC, at 1 µM
# [4] = biological target: Death-associated protein kinase 1 (Homo sapiens, UniProt P53355); assay: Selectivity interaction (KinomeScan (DiscoverX)) EUB0000618a DAPK1; conditions: at 10 µM
# [5] = biological target: T3, STE20-like serine/threonine-protein kinase; assay: Selectivity interaction (KinomeScan (DiscoverX)) EUB0000618a SLK; conditions: at 10 µM
# [6] = biological target: T4, Ephrin type-A receptor 8 (Homo sapiens) (UniProt P29322); conditions: at 10 µM
# T4 sequence (whole entry): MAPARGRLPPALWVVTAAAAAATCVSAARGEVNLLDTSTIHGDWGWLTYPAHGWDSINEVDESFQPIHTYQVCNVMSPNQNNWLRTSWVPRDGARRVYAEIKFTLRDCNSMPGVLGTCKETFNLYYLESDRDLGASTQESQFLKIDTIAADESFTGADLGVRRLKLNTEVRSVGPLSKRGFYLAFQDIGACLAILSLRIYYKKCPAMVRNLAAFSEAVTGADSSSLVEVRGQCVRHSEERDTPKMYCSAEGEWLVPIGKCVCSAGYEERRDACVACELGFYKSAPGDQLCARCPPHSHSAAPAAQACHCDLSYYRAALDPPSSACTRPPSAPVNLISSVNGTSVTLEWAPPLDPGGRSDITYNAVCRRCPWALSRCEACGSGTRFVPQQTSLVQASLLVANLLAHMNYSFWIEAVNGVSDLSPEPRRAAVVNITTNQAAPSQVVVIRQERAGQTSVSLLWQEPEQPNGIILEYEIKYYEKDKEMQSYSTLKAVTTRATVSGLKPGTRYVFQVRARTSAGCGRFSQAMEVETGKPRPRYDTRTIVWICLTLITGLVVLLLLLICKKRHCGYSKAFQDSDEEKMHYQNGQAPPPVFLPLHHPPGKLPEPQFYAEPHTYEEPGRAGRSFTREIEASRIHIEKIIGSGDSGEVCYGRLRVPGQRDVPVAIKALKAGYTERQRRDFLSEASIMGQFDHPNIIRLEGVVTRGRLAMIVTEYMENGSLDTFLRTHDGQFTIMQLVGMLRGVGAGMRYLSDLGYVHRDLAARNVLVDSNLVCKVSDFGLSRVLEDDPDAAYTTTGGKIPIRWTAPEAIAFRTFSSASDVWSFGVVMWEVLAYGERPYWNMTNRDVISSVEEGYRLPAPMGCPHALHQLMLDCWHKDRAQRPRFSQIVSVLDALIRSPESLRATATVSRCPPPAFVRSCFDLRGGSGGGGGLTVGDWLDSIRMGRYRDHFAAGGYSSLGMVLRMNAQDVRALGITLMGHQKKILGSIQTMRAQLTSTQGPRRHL
# T3 sequence (Q9H2G2 whole entry, looked up): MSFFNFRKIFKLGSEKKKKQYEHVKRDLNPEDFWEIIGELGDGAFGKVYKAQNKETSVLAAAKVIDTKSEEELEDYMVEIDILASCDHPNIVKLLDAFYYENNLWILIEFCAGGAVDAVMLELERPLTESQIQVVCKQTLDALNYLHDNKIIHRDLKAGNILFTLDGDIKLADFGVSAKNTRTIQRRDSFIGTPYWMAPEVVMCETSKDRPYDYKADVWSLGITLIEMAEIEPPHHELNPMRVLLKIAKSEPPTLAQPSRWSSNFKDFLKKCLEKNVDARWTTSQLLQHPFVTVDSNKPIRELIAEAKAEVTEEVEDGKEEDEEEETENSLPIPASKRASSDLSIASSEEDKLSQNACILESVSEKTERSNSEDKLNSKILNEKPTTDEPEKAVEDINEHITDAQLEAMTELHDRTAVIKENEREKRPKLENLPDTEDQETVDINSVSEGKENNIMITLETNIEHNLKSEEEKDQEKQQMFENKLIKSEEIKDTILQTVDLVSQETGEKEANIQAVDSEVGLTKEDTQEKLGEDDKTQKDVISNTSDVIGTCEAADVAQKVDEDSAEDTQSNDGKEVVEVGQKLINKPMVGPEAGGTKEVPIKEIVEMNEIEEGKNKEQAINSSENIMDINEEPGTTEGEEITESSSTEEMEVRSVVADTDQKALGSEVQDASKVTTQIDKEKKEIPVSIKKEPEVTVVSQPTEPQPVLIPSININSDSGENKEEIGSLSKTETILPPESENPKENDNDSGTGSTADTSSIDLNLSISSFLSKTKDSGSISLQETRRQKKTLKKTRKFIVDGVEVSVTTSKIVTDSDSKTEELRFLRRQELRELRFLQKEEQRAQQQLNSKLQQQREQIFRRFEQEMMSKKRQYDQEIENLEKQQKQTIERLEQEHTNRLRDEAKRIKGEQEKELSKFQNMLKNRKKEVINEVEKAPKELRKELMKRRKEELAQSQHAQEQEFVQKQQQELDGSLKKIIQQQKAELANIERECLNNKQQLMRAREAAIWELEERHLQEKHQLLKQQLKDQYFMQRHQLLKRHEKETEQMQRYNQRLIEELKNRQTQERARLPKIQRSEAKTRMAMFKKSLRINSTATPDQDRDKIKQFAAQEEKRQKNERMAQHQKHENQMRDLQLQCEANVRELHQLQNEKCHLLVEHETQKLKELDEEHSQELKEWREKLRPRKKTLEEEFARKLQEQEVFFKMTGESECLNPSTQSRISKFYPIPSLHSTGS
# Chain of Death-associated protein kinase 1 (P53355 whole entry, looked up): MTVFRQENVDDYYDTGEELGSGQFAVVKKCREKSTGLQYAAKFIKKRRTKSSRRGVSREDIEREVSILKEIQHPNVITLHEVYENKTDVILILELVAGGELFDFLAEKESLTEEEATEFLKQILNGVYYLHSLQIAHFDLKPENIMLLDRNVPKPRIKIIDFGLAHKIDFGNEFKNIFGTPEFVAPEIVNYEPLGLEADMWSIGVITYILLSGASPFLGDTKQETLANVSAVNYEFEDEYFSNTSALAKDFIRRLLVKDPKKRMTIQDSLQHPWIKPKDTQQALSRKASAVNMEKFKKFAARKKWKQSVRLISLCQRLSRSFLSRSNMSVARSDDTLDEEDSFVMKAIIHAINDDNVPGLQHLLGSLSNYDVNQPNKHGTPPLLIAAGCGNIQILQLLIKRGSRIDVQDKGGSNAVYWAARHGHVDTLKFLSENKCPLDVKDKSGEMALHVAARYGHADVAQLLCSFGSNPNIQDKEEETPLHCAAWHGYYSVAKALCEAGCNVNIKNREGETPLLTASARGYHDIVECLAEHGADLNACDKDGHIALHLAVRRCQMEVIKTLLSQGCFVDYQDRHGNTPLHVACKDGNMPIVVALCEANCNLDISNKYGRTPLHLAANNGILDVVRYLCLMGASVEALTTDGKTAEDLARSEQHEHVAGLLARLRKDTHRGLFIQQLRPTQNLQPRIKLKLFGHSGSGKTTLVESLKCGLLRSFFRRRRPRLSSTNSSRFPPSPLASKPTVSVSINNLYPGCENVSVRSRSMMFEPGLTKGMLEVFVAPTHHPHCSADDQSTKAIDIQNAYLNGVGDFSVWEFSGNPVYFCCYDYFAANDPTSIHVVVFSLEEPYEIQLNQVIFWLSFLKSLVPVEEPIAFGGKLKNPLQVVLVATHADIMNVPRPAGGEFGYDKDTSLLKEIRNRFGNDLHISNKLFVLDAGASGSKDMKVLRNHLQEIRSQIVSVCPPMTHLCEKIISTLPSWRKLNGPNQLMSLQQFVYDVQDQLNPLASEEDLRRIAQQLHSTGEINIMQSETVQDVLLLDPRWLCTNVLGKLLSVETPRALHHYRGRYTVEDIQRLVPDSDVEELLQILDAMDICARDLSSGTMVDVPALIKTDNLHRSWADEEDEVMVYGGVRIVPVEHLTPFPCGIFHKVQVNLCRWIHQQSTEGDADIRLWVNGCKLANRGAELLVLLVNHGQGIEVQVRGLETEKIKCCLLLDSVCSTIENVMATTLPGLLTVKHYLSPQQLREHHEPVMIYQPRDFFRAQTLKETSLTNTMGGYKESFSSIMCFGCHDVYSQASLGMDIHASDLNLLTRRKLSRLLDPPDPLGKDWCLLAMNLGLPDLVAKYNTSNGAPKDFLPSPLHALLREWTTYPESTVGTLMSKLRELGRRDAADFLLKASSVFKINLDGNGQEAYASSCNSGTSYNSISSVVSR
# Chain of D(1A) dopamine receptor (P21728 whole entry): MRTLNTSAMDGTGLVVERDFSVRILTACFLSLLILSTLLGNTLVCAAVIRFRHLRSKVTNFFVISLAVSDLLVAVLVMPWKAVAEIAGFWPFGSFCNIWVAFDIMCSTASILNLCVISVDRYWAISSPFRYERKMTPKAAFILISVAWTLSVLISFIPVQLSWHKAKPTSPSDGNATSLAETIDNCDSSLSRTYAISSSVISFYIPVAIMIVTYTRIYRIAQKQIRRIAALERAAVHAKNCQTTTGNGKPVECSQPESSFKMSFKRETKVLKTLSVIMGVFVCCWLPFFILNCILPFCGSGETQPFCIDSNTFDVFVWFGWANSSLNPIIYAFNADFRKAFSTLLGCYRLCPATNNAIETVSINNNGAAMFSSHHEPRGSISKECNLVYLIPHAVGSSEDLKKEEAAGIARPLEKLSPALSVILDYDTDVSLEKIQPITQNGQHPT
smiles,measurement,setting,value
CCc1ccccc1C(=O)Nc1n[nH]c2c(C)c(F)c(C3C(C#N)=C(C)N(C)C(C)=C3C#N)cc12 [BAY-3827],% of inhibition,D(1A) dopamine receptor,67.4%
O=C(NOC[C@H](O)CO)c1ccc(F)c(F)c1Nc1ccc(I)cc1F,% of control,[1],100%
N#Cc1cccc(-c2c[nH]c3ncnc(N4CCOCC4)c23)c1,% of control,[2],100%
same,% of inhibition,[3],61%
O[C@H]1CC[C@H](Nc2ncc3nc(Nc4c(F)cc(F)cc4F)n([C@H]4CCOC4)c3n2)CC1,% of control,[4],95%
same,% of control,[5],88%
CCN(CC)CCCCNc1ncc2cc(-c3cc(OC)cc(OC)c3)c(NC(=O)NC(C)(C)C)nc2n1,% of control,[6],100%
